Legend:
[1] = tested on: HFN7.1 monoclonal antibody; assay: ELISA with HFN7.1 monoclonal antibody; format: binding; conditions: passively adsorbed ligands, various coating concentrations
Experimental: An ELISA was used to probe for the biological activity of the FNIII7-10 fragment compared to pFN. FNIII7-10 or pFN was adsorbed onto either uncoated or Neutravidin-coated (100 μg/ml) 96-well black U-well Dynex plates at various concentrations for 30 min. Following incubation in blocking buffer (0.25% BSA, 0.1 M EDTA, 2.5% Tween-20, 0.00125% NaN3), HFN7.1 antibody (0.6 μg/ml in blocking buffer) was added for 1 h at 37° C., and, after washing with blocking buffer, surfaces were incubated in alkaline phosphatase-conjugated anti-mouse IgG (0.6 μg/ml) for 1 h at 37° C. Washed surfaces were exposed to 4-methylumbelliferyl phosphate (25 mg/ml in 10 mM diethanolamine, pH 9.5). The resulting fluorescence was quantified using an HTS 7000 Plus plate reader (Perkin Elmer, Foster City, Calif.) at 360 nm excitation and 465 nm emission.

rat tibia cortical bone = assay: Rat tibia cortical bone implantation, histology and bone-implant contact histomorphometry; format: in vivo; conditions: 4 weeks
Experimental: Commercially pure titanium implants (FIG. 4) were sonicated in de-ionized water for 20 min to remove surface debris. Implants were then dipped in 4% HF for 30 sec to remove the existing oxide layer and then incubated in 35% HNO3 for 30 min at 50° C. to regenerate a new oxide coating. Samples were transferred to 1.8 N NaOH for 1 min to terminate the oxidation reaction. Implants were then rinsed and boiled in de-ionized water for 1 h. To create the bioactive coating, the implants were incubated in 20 μg/ml GFOGER peptide (SEQ ID NO:1) or type I collagen solution for 1 h. Control titanium rods were incubated in PBS.
Implantations were conducted in accordance with an IACUC-approved protocol. Both hind legs of anesthetized, mature Sprague-Dawley male rats (250-350 g) were shaved and scrubbed with alcohol. The medial aspect of the proximal tibial metaphysis was exposed through an antero-medial skin incision, leaving the medial collateral ligament intact. Using a saline-cooled drill, two defects were created in each tibia. Sterile implant rods were press fit into the defects. Periosteum was mobilized and sutured over the implantation site, and the skin was closed with wound clips. Subjects were euthanized after 4 weeks and proximal tibiae were fixed in neutral buffered formalin for histology or recovered without fixation and maintained in PBS-moistened gauze for immediate mechanical testing.
Excised tibiae were fixed in 10% neutral buffered formalin for 1 week. […] Ground sections of 50-80 μm were generated using the Exakt Grinding System™. Two longitudinal ground sections were generated per tibia, each containing two titanium plugs inserted transverse to the tibia's long axis. Sections were then stained with Sanderson's Rapid Bone Stain™ and a van Gieson counter stain. Bone implant contact (BIC) was measured as the percentage of implant's circumference that was in direct contact with bone tissue (Adobe Photoshop® CS imaging software).
To evaluate the performance of the bioactive GFOGER peptide (SEQ ID NO:1) treatment in vivo, osseointegration in a rat tibia cortical bone model was quantified using quantitative histomorphometry and pull-out mechanical testing. A cylindrical titanium implant rod with a tapered stop collar was designed (FIG. 4). The tapered head ensures that all implants are inserted into the bone at the same depth, guaranteeing uniform bone contact among treatments. Using a saline-cooled drill, two defects 2 mm in diameter were created in the medial aspect of the proximal tibial metaphysis. Implant rods consisting of GFOGER peptide (SEQ ID NO:1) functionalized or untreated (control) titanium were press fit into the cortical defects. After four weeks, the rat tibiae were harvested and evaluated for bone apposition by histological staining and mechanical integration by pull-out testing. […] Representative micrographs show 50-80 μm longitudinal ground sections of rat tibia stained with Sanderson's Rapid Bone Stain™ and van Gieson counterstain. Cells stain dark to light blue, soft tissue elements stain blue-green, and bone matrix stains yellow orange to autumn orange.
Osseointegration of implants in a rat tibia cortical bone model was quantified to evaluate the in vivo performance of the engineered titanium surfaces in bone healing. Importantly, this in vivo model provides a rigorous platform to evaluate implant coating function in a relevant orthopaedic setting. Two 2.0-mm diameter defects were drilled into the medial aspect of the proximal tibial metaphysis using a saline cooled drill. Tapered cylindrical implants (FIG. 4) of clinical-grade titanium were press-fit into the cortical defects.

MC3T3-E1 cells = assay: Centrifugation cell adhesion assay on ligand-tethered SAMs; format: cell-based, murine
Experimental: MC3T3-E1 murine immature osteoblast-like cells (Riken Cell Bank, Hirosawa, Japan) were used because of their expression of multiple integrins, including alpha5beta1, alpha2beta1, and alphaVbeta3. Cells were maintained at 37° C. in α-MEM supplemented with 10% FBS and 1% penicillin-streptomycin and passaged every 2-3 days via standard culture techniques.
Self-assembled monolayers (SAMs) of alkanethiols on gold were used to present well-defined, ordered surfaces with anchoring groups within a non-fouling background. Tri(ethylene glycol)-terminated alkanethiol (HS—(CH2)11—(OCH2CH2)3—OH; EG3) and carboxylic acid-terminated alkanethiol (HS—(CH2)11—(OCH2CH2)6—OCH2COOH; EG6-COOH) were previously synthesized and characterized. Gold-coated substrates were prepared by sequential deposition of titanium (100 Å) and gold (200 Å) films via an electron beam evaporator (Thermionics Laboratories, Hayward, Calif., 2×10^−6 Torr, 1 A/s) onto clean 6-well plate lids or glass coverslips. Mixed SAM surfaces were prepared on substrates by immersing in a 1.0 mM mixed solution of EG3/EG6-COOH thiols (4 h). Peptide ligands were tethered using standard peptide chemistry. Briefly, following washing in ethanol and ultrapure H2O, SAMs were incubated in 2.0 mM EDC and 5.0 mM NHS in 0.1 M 2-(N-morpho)-ethanesulfonic acid and 0.5 M NaCl (pH 6.0), and subsequently immersed in a 20 mM solution of 2-mercaptoethanol in deionized H2O. Adhesive ligands in PBS were then incubated on the activated supports for 30 min and the unreacted surface NHS esters were then quenched in 20 mM glycine. Finally, the surfaces were blocked in 1% heat-denatured bovine serum albumin (BSA) and then incubated overnight in DPBS to reduce nonspecific protein adsorption.
A modification of a centrifugation assay was used to apply controlled detachment forces to cells adhering to engineered surfaces. Multi-wells of engineered surfaces were created on gold-coated polystyrene plate lids using silicone gaskets (Grace Bio-Labs, Bend, Oreg.). Mixed SAMs were assembled and ligands tethered at varying densities. MC3T3-E1 cells were labeled with […] calcein-AM, a membrane-permeable green fluorescent dye, in 2 mM dextrose-DPBS for 30 min and resuspended in α-MEM with 10% FBS. Cells were seeded onto the surfaces at 200 cells/mm^2, and allowed to attach for 1 h at 37° C. For blocking antibody experiments, cells were incubated in the presence of function-perturbing antibodies (10 μg/ml) for 10 min with gentle agitation prior to cell seeding. Before centrifugation, cell images were taken using a Nikon TE-300 fluorescence microscope and Spot RT digital camera. Wells were then filled completely with dextrose-PBS, sealed, inverted, and centrifuged for 5 min at a prescribed speed on a Beckman Allegra 6 centrifuge (GH 3.8 rotor) to apply normal detachment forces. Media was then gently aspirated from the wells, and wells were refilled for post-spin image collection. Post/pre-spin cell ratios were determined by image analysis, and this adhesive fraction was plotted against ligand surface density to obtain cell adhesion profiles.

## pFN: human plasma fibronectin obtained from Invitrogen
[1]
  HFN7.1 binding (biological activity): increased with protein coating concentration

## type I collagen: native type I collagen coating on titanium implants
Rat tibia cortical bone; passively coated implants vs untreated titanium
  bone apposition (bone implant contact, BIC): COL>Ti
Rat tibia cortical bone; passively coated titanium implants (20 μg/ml)
  histology: peri-implant bone mineral: Less bone mineral was visible

## GRGDG13PHSRN (GRGDGGGGGGGGGGGGGPHSRN) [RGD-PHSRN]
MC3T3-E1 cells; ligand tethered to SAMs, MC3T3-E1
  ADH50 (ligand density required for half-maximal adhesion): 1950 fmol/cm^2
MC3T3-E1 cells; maximum ligand density, normalized to unblocked controls
  adhesion with blocking antibodies against α5β1 integrin: only slightly reduced adhesion

From patent US8445006B2, “Biomolecular coating for implants” (Georgia Tech Research Corporation, priority 2006, dated 2013)
